The values that follow are results of earlier work, collected in patent publication US20090162442A1, “MULTI-PHASIC, NANO-STRUCTURED COMPOSITIONS CONTAINING A COMBINATION OF A FIBRATE AND A STATIN” (priority 2007, published 2009).

[1] abbreviates: American Family Physician, 2002, Vol. 65, No. 6, page 1173.

Turning to `CC[C@H](C)C(=O)O[C@H]1C[C@H](O)C=C2C=C[C@H](C)[C@H](CC[C@@H](O)C[C@@H](O)CC(=O)O)[C@H]21` [pravastatin], the “bioavailability under fed conditions (food interaction)” value is recorded as “decrease”.

As to `CC(C)n1c(/C=C/C(O)CC(O)CC(=O)O)c(-c2ccc(F)cc2)c2ccccc21` (centres unmarked) [fluvastatin], the “bioavailability under fed conditions (food interaction)” value is listed as “decrease”. In addition, under setting [1], the “absorbed (rate of absorption)” value is listed as 98% and the bioavailable result was “approximately 24%”.

With `CC[C@H](C)C(=O)O[C@H]1C[C@@H](C)C=C2C=C[C@H](C)[C@H](CC[C@@H]3C[C@@H](O)CC(=O)O3)[C@H]21` [lovastatin], the “absorbed (rate of absorption)” value under setting [1] was “about 30%”.
